pIC50: −log10 of the molar value. Read-outs that look alike come from different tables or passages of the source.
Target: human PDHK2 (hPDHK2) (Homo sapiens (Human), UniProt Q15119)
Test: Inhibitory action of PDHK activity in vitro (kinase reaction, residual PDH activity measured)
Assay type: biochemical
[1] = read-out: PDHK inhibitory activity IC50
[2] = read-out: PDHK inhibitory activity (class symbol)
[3] = PDHK inhibitory activity (class symbol)

Row | Structure (SMILES) | pIC50 (class symbol of IC50, read-out: PDHK inhibitory activity) | pIC50 [1] | pIC50 [2] | pIC50 [3] | pIC50 (PDHK inhibitory activity IC50 (μmol/L))
1 | O=C(O)CCn1cc(-c2ccc3c(c2)C(O)(C(F)(F)F)c2cccc(CO)c2-3)cn1 (stereo not drawn) [compound 600] | < 6.00 | < 6.00 |  |  | 
2 | NC(=O)CCn1cc(-c2ccc3c(c2)C(O)(C(F)(F)F)c2cccc(CO)c2-3)cn1 (stereo not drawn) [compound 601] |  | < 6.00 | < 6.00 |  | 
3 | CC(C)(C)n1cc(-c2ccc3c(c2)C(O)(C(F)(F)F)c2cccc(CO)c2-3)cn1 (stereo not drawn) [compound 602] |  | < 6.00 | < 6.00 |  | 
4 | Cn1cc(-c2cc(C#CCO)c3c(c2)C(O)(C(F)(F)F)c2ccccc2-3)cn1 (stereo not drawn) [compound 603] |  | 6.64 |  | 6.00 to 7.00 | 
5 | O=C(O)Cn1cc(-c2ccc3c(c2)C(O)(C(F)(F)F)c2cccc(CO)c2-3)cn1 (stereo not drawn) [compound 608] |  | < 6.00 | < 6.00 |  | 
6 | NC(=O)Cn1cc(-c2ccc3c(c2)C(O)(C(F)(F)F)c2cccc(CO)c2-3)cn1 (stereo not drawn) [compound 609] |  | < 6.00 | < 6.00 |  | 
7 | OCCCCOc1cc(CO)c2c(c1)C(O)(C(F)(F)F)c1ccccc1-2 (stereo not drawn) [compound 611] |  | 6.48 |  | 6.00 to 7.00 | 
8 | NC(=O)c1cc(OCCN2CCCOC2=O)cc2c1-c1ccccc1C2(O)C(F)(F)F (stereo not drawn) [compound 612] |  | 7.33 |  | > 7.00 | 
9 | O=C(O)CCCOc1cc(-c2cnco2)c2c(c1)C(O)(C(F)(F)F)c1ccccc1-2 (stereo not drawn) [compound 613] |  | 7.12 |  | > 7.00 | 
10 | OCCn1cc(-c2cc(CO)c3c(c2)C(O)(C(F)(F)F)c2ccccc2-3)cn1 (stereo not drawn) [compound 615] |  | 6.98 |  | 6.00 to 7.00 | 
11 | COC(=O)c1cc(Cl)cc2c1-c1ccccc1C2(O)C(F)(F)F (stereo not drawn) [compound 616] |  | 6.72 |  | 6.00 to 7.00 | 
12 | CCn1cc(-c2cc(CO)c3c(c2)C(O)(C(F)(F)F)c2ccccc2-3)cn1 (stereo not drawn) [compound 618] |  | 7.25 |  | > 7.00 | 
13 | OCCn1cc(-c2cc(CO)cc3c2-c2ccccc2C3(O)C(F)(F)F)cn1 (stereo not drawn) [compound 620] |  | 7.19 |  | > 7.00 | 
14 | CC(C)n1cc(-c2cc(CO)c3c(c2)C(O)(C(F)(F)F)c2ccccc2-3)cn1 (stereo not drawn) [compound 621] |  | 7.19 |  | > 7.00 | 
15 | Cn1cc(-c2cc(OCC(CO)CO)cc3c2-c2ccccc2C3(O)C(F)(F)F)cn1 (stereo not drawn) [compound 622] |  | 7.48 |  | > 7.00 | 
16 | O=C(O)CCCn1cc(-c2cc(CO)cc3c2-c2ccccc2C3(O)C(F)(F)F)cn1 (stereo not drawn) [compound 623] |  | 6.88 |  | 6.00 to 7.00 | 
17 | N#CCc1cc(Cl)cc2c1-c1ccccc1C2(O)C(F)(F)F (stereo not drawn) [compound 625] |  | < 6.00 | < 6.00 |  | 
18 | COc1cc(C(N)=O)c2c(c1)C(O)(C(F)(F)F)c1ccccc1-2 (stereo not drawn) [compound 626] |  | 6.17 |  | 6.00 to 7.00 | 
19 | COc1cc(CO)c2c(c1)C(O)(C(F)(F)F)c1ccccc1-2 (stereo not drawn) [compound 627] |  | < 6.00 | < 6.00 |  | 
20 | Cn1cc(-c2cc(OC(CO)CO)cc3c2-c2ccccc2C3(O)C(F)(F)F)cn1 (stereo not drawn) [compound 628] |  | 7.24 |  | > 7.00 | 
21 | CC(C)Cc1cc(-c2cnn(CCO)c2)c2c(c1)C(O)(C(F)(F)F)c1ccccc1-2 (stereo not drawn) [compound 631] |  | 7.21 |  | > 7.00 | 
22 | C#Cc1cc(C(N)=O)c2c(c1)C(O)(C(F)(F)F)c1ccccc1-2 (stereo not drawn) [compound 632] |  | 6.71 |  | 6.00 to 7.00 | 
23 | CCc1cc(C(N)=O)c2c(c1)C(O)(C(F)(F)F)c1ccccc1-2 (stereo not drawn) [compound 633] |  | 6.25 |  | 6.00 to 7.00 | 
24 | CC[Si](CC)(CC)CCc1cc(C(N)=O)c2c(c1)C(O)(C(F)(F)F)c1ccccc1-2 (stereo not drawn) [compound 634] |  | 7.00 |  | 6.00 to 7.00 | 
25 | OCc1cc(Cl)cc2c1-c1ccccc1C2(O)C(F)(F)F (stereo not drawn) [compound 635] |  | 6.29 |  | 6.00 to 7.00 | 
26 | NC(=O)c1cc(Cl)cc2c1-c1ccccc1C2(O)C(F)(F)F (stereo not drawn) [compound 636] |  | 6.62 |  | 6.00 to 7.00 | 

Row | Structure (SMILES) | pIC50 (class symbol of IC50, read-out: PDHK inhibitory activity) | pIC50 [1] | pIC50 [2] | pIC50 [3] | pIC50 (PDHK inhibitory activity IC50 (μmol/L))
27 | Cn1cc(-c2cc(CC(N)=O)c3c(c2)C(O)(C(F)(F)F)c2ccccc2-3)cn1 (stereo not drawn) [compound 637] |  | < 6.00 | < 6.00 |  | 
28 | CC(C)(C)n1cc(-c2cc(CO)c3c(c2)C(O)(C(F)(F)F)c2ccccc2-3)cn1 (stereo not drawn) [compound 638] |  | 6.90 |  | 6.00 to 7.00 | 
29 | CC(C)(C)n1cc(-c2cc(C(N)=O)c3c(c2)C(O)(C(F)(F)F)c2ccccc2-3)cn1 (stereo not drawn) [compound 639] |  | 7.20 |  | > 7.00 | 
30 | NC(=O)c1cc(OCCO)cc2c1-c1ccccc1C2(O)C(F)(F)F (stereo not drawn) [compound 640] |  | 6.14 |  | 6.00 to 7.00 | 
31 | C#Cc1cc(CO)c2c(c1)C(O)(C(F)(F)F)c1ccccc1-2 (stereo not drawn) [compound 641] |  | 6.29 |  | 6.00 to 7.00 | 
32 | CCc1cc(CO)c2c(c1)C(O)(C(F)(F)F)c1ccccc1-2 (stereo not drawn) [compound 642] |  | < 6.00 | < 6.00 |  | 
33 | Cn1cc(-c2cc(CCO)c3c(c2)C(O)(C(F)(F)F)c2ccccc2-3)cn1 (stereo not drawn) [compound 643] |  | 6.74 |  | 6.00 to 7.00 | 
34 | O=C(c1cc(CO)c2c(c1)C(O)(C(F)(F)F)c1ccccc1-2)N1CC(O)C1 (stereo not drawn) [compound 644] |  | 6.89 |  | 6.00 to 7.00 | 
35 | CC(C)Cn1cc(-c2cc(C(N)=O)c3c(c2)C(O)(C(F)(F)F)c2ccccc2-3)cn1 (stereo not drawn) [compound 645] |  | 7.43 |  | > 7.00 | 
36 | CC(C)(C)Cn1cc(-c2cc(C(N)=O)c3c(c2)C(O)(C(F)(F)F)c2ccccc2-3)cn1 (stereo not drawn) [compound 646] |  | 7.40 |  | > 7.00 | 
37 | CC(C)Cc1cc(-c2cnn(C(CO)CO)c2)c2c(c1)C(O)(C(F)(F)F)c1ccccc1-2 (stereo not drawn) [compound 648] |  | 7.36 |  | > 7.00 | 
38 | CC(C)Cn1cc(-c2cc(CO)c3c(c2)C(O)(C(F)(F)F)c2ccccc2-3)cn1 (stereo not drawn) [compound 649] |  | 7.43 |  | > 7.00 | 
39 | CC(C)(C)Cn1cc(-c2cc(CO)c3c(c2)C(O)(C(F)(F)F)c2ccccc2-3)cn1 (stereo not drawn) [compound 650] |  | 7.44 |  | > 7.00 | 
40 | C/C=C/c1cc(-c2cnn(C(CO)CO)c2)c2c(c1)C(O)(C(F)(F)F)c1ccccc1-2 (stereo not drawn) [compound 651] |  | 7.60 |  | > 7.00 | 
41 | CCCc1cc(-c2cnn(C(CO)CO)c2)c2c(c1)C(O)(C(F)(F)F)c1ccccc1-2 (stereo not drawn) [compound 652] |  | 7.44 |  | > 7.00 | 
42 | CCc1cc(-c2cnn(C(CO)CO)c2)c2c(c1)C(O)(C(F)(F)F)c1ccccc1-2 (stereo not drawn) [compound 653] |  | 7.43 |  | > 7.00 | 
43 | CC(C)c1cc(-c2cnn(C(CO)CO)c2)c2c(c1)C(O)(C(F)(F)F)c1ccccc1-2 (stereo not drawn) [compound 654] |  | 7.26 |  | > 7.00 | 
44 | NC(=O)c1cc(CCCN2CCCC2=O)cc2c1-c1ccccc1C2(O)C(F)(F)F (stereo not drawn) [compound 655] |  | 7.14 |  | > 7.00 | 
45 | O=C1CCCN1CCCc1cc(CO)c2c(c1)C(O)(C(F)(F)F)c1ccccc1-2 (stereo not drawn) [compound 656] |  | 6.76 |  | 6.00 to 7.00 | 
46 | NC(=O)c1cc(-c2cncnc2)cc2c1-c1ccccc1C2(O)C(F)(F)F (stereo not drawn) [compound 658] |  | 7.15 |  | > 7.00 | 
47 | CC(C)(O)Cn1cc(-c2cc(CO)c3c(c2)C(O)(C(F)(F)F)c2ccccc2-3)cn1 (stereo not drawn) [compound 661] |  | 7.23 |  | > 7.00 | 
48 | NC(=O)c1cc(-c2cnn(CC3CCCCC3)c2)cc2c1-c1ccccc1C2(O)C(F)(F)F (stereo not drawn) [compound 662] |  | 7.47 |  | > 7.00 | 
49 | CC(C)(C)CCc1cc(-c2cnn(C(CO)CO)c2)c2c(c1)C(O)(C(F)(F)F)c1ccccc1-2 (stereo not drawn) [compound 666] |  | 7.57 |  | > 7.00 | 
50 | N#Cc1ccc2c(c1)C(O)(C(F)(F)F)c1ccccc1-2 (stereo not drawn) [compound 671] |  | 5.84 |  | < 6.00 | 
51 | Cc1cc(-c2cnn(C(CO)(CO)CO)c2)c2c(c1)[C@@](O)(C(F)(F)F)c1ccccc1-2 [compound 707, (+)-2-hydroxymethyl-2-[4-(9-hydroxy-2-methyl-9-trifluoromethyl-9H-fluoren-4-yl)-pyrazol-1-yl]-propane-1,3-diol] |  |  |  | > 7.00 | 7.72

— US8871934B2, “Fluorene compound and pharmaceutical use thereof” (Japan Tobacco Inc., priority 2008, dated 2014)
